# Assay results: BindingDB's records for doi:10.1021/jm9900016 (Universit&#224, 1999)
# Target: Thymidylate synthase (Lactobacillus casei)
# Assay: In vitro inhibition of Lactobacillus casei Thymidylate synthase.
row,Ki [µM],Compound
1,1.5,O=C1OC(c2ccc(O)cc2)(c2ccc(O)c3ccccc23)c2ccccc21 (stereo not drawn) [3-(4-Hydroxy-naphthalen-1-yl)-3-(4-hydroxy-phenyl)-3H-isobenzofuran-1-one]
2,1.5,"O=C1OC(c2ccc(O)cc2)(c2ccc(O)cc2)c2ccc3c4c(ccc1c24)CC3 [7,7-Bis-(4-hydroxy-phenyl)-2,7-dihydro-1H-6-oxa-cyclopenta[cd]phenalen-5-one]"
3,105,O=C1OC(O)(c2ccccc2O)c2cccc3cccc1c23 (stereo not drawn) [3-Hydroxy-3-(2-hydroxy-phenyl)-3H-benzo[de]isochromen-1-one]
4,7,"O=C1OC(c2ccc(O)cc2)(c2ccc(O)cc2)c2cc3ccccc3cc21 [3,3-Bis-(4-hydroxy-phenyl)-3H-naphtho[2,3-c]furan-1-one]"
5,1.5,"O=C1OC(c2ccc(O)c(Cl)c2)(c2ccc(O)c(Cl)c2)c2cc3ccccc3cc21 [3,3-Bis-(3-chloro-4-hydroxy-phenyl)-3H-naphtho[2,3-c]furan-1-one]"
6,1.9,"O=C1OC(c2ccc(O)c(Cl)c2)(c2ccc(O)c(Cl)c2)c2ccccc21 [3,3-Bis-(3-chloro-4-hydroxy-phenyl)-3H-isobenzofuran-1-one]"
7,1.5,"O=C1OC(c2ccc(O)c(F)c2)(c2ccc(O)c(F)c2)c2cc3ccccc3cc21 [3,3-Bis-(3-fluoro-4-hydroxy-phenyl)-3H-naphtho[2,3-c]furan-1-one]"
8,0.25,O=C1OC(O)(c2ccc(O)c(Cl)c2)c2ccc([N+](=O)[O-])c3cccc1c23 (stereo not drawn) [3-(3-Chloro-4-hydroxy-phenyl)-3-hydroxy-6-nitro-3H-benzo[de]isochromen-1-one]
